According to US8039458B2, “HIV integrase inhibitors” (priority 2005, dated 2011):

Assays:
[1] = test system: recombinant NL-Rluc virus; experiment: Inhibition of HIV replication (NL-RLuc virus, Renilla luciferase); assay type: cell-based; conditions: Human immunodeficiency virus 1, read-out: antiviral actitively
HIV-Integrase = biological target: T1, HIV-Integrase (Human immunodeficiency virus type 1 group M subtype B, UniProt P12497); experiment: HIV-Integrase binding assay (competition with [3H]-compound I, SPA); conditions: competitive binding vs [3H]-compound I to purified integrase; Ki by Cheng and Prusoff; read-out: in vitro binding
T1 construct: Recombinant integrase (0.26 ng) was incubated with the beads
Method: HIV-Integrase Inhibition Activity. To evaluate in-vitro activity against HIV-integrase, 5 pmole of biotin labeled substrate DNA was bound to 100 μg of Streptavidin coated PVT SPA beads (Amersham Pharmacia Biotech). Recombinant integrase (0.26 ng) was incubated with the beads for 90 min at 37° C. Unbound enzyme was removed by washing the complex followed by addition of inhibitors and 0.1 fmol of P33 labeled target DNA. The reaction was stopped by adding EDTA to a final concentration of 10 mM. Samples were counted in TopCountNXT (Packard) and the CPM was used as a measure of integration. The reaction condition was as described in A. Engelman and R. Craigie, J. Virol. 69, 5908-5911 (1995). The sequences of substrate and target DNA were described in Nucleic Acid Research 22,1121-1122 (1994).
HIV-Integrase binding assay. In this assay competitive binding experiments with test compounds and a radiolabeled integrase inhibitor (compound I) are performed against purified integrase. SPA bead/DNA/enzyme complexes were prepared as for the integrase inhibition assay except, to each well, 0.69 μl of integrase enzyme ([…]) was used per 2 μl of LTR DNA-attached scintillation proximity beads (stock 50 mg/ml). Binding reactions were carried out in 96-well white polystyrene assay plates (Corning, #3600). The following was added sequentially to each well: 20 μl of water or 20 μl of human serum (Cellgro Cat# 35-060-CL), 5 μl of serially diluted compound (in 50% DMSO/50% integrase SPA buffer), 5 μl of [^3H]-compound I (6,000 cpm/μl in SPA buffer) and 20 μl of bead/DNA/enzyme complex. The plates were shaken for 2 hours and then allowed to sit at room temperature without shaking overnight. The [^3H]-compound I binding was measured using a Topcount scintillation counter. Cheng and Prusoff equations were used to convert the inhibition of compound 1 binding into the corresponding Ki value. Activity equal to A refers to a compound having Ki=0.001 to 0.003 μM while B and C denote compounds having Ki=0.003 to 0.05 μM and Ki≧0.050 μM respectively.

Structure (SMILES) | melting point [°C] | EC50 [1] [µM] | Ki (HIV-Integrase) [µM]
O=C(NCc1ccc(F)cc1)c1nc2n(c(=O)c1O)CCOCC2 [Example 31, N-((4-fluorophenyl)methyl)-3-hydroxy-4-oxo-6,7,9,10-tetrahydro-4H-pyrimido[1,2-d][1,4]oxazepine-2-carboxamide] | 197 to 199 | > 0.05 | 0.003 to 0.05
O=C(NCc1ccc(F)cc1)c1nc2n(c(=O)c1O)CCOCC21CCOCC1 [Example 32, N-((4-fluorophenyl)methyl)-3′-hydroxy-4′-oxo-2,3,5,6,6′,7′-hexahydro-4′H-spiro[pyran-4,10′-pyrimido[1,2-d][1,4]oxazepine]-2′-carboxamide] |  | 0.01 to 0.05 | 0.003 to 0.05
CNC(=O)c1cc(F)ccc1CNC(=O)c1nc2n(c(=O)c1O)CCOCC21CCOCC1 [Example 33, N-((4-fluoro-2-((methylamino)carbonyl)phenyl)methyl)-3′-hydroxy-4′-oxo-2,3,5,6,6′,7′-hexahydro-4′H-spiro[pyran-4,10′-pyrimido[1,2-d][1,4]oxazepine]-2′-carboxamide] |  | 0.001 to 0.01 | 0.003 to 0.05
O=C(NCc1ccc(F)cc1-n1cncn1)c1nc2n(c(=O)c1O)CCOCC21CCOCC1 [Example 34, N-((4-fluoro-2-(1H-1,2,4-triazol-1-yl)phenyl)methyl)-3′-hydroxy-4′-oxo-2,3,5,6,6′,7′-hexahydro-4′H-spiro[pyran-4,10′-pyrimido[1,2-d][1,4]oxazepine]-2′-carboxamide] |  | 0.001 to 0.01 | 0.001 to 0.003
Cc1ncn(-c2cc(F)ccc2CNC(=O)c2nc3n(c(=O)c2O)CCOCC32CCOCC2)n1 [Example 35, N-((4-fluoro-2-(3-methyl-1H-1,2,4-triazol-1-yl)phenyl)methyl)-3′-hydroxy-4′-oxo-2,3,5,6,6′,7′-hexahydro-4′H-spiro[pyran-4,10′-pyrimido[1,2-d][1,4]oxazepine]-2′-carboxamide] |  | 0.001 to 0.01 | 0.003 to 0.05
Cc1ncnn1-c1cc(F)ccc1CNC(=O)c1nc2n(c(=O)c1O)CCOCC21CCOCC1 [Example 36, N-((4-fluoro-2-(5-methyl-1H-1,2,4-triazol-1-yl)phenyl)methyl)-3′-hydroxy-4′-oxo-2,3,5,6,6′,7′-hexahydro-4′H-spiro[pyran-4,10′-pyrimido[1,2-d][1,4]oxazepine]-2′-carboxamide] |  | 0.001 to 0.01 | 0.003 to 0.05
Cc1cnnn1-c1cc(F)ccc1CNC(=O)c1nc2n(c(=O)c1O)CCOCC21CCOCC1 [Example 37, N-((4-fluoro-2-(5-methyl-1H-1,2,3-triazol-1-yl)phenyl)methyl)-3′-hydroxy-4′-oxo-2,3,5,6,6′,7′-hexahydro-4′H-spiro[pyran-4,10′-pyrimido[1,2-d][1,4]oxazepine]-2′-carboxamide] |  | 0.01 to 0.05 | 0.003 to 0.05
CN1CCN(c2cc(F)ccc2CNC(=O)c2nc3n(c(=O)c2O)CCOCC32CCOCC2)C1=O [Example 38, N-((4-fluoro-2-(3-methyl-2-oxo-1-imidazolidinyl)phenyl)methyl)-3′-hydroxy-4′-oxo-2,3,5,6,6′,7′-hexahydro-4′H-spiro[pyran-4,10′-pyrimido[1,2-d][1,4]oxazepine]-2′-carboxamide] |  | 0.001 to 0.01 | 0.003 to 0.05
O=C(NCc1ccc(F)cc1-n1ncnc1CF)c1nc2n(c(=O)c1O)CCOCC21CCOCC1 [Example 39, N-((4-fluoro-2-(5-(fluoromethyl)-1H-1,2,4-triazol-1-yl)phenyl)methyl)-3′-hydroxy-4′-oxo-2,3,5,6,6′,7′-hexahydro-4′H-spiro[pyran-4,10′-pyrimido[1,2-d][1,4]oxazepine]-2′-carboxamide] |  | 0.001 to 0.01 | 0.003 to 0.05
Cn1ncnc1-c1cc(F)ccc1CNC(=O)c1nc2n(c(=O)c1O)CCOCC21CCOCC1 [Example 40, N-((4-fluoro-2-(1-methyl-1H-1,2,4-triazol-5-yl)phenyl)methyl)-3′-hydroxy-4′-oxo-2,3,5,6,6′,7′-hexahydro-4′H-spiro[pyran-4,10′-pyrimido[1,2-d][1,4]oxazepine]-2′-carboxamide] |  | 0.001 to 0.01 | 0.003 to 0.05
Cc1nc(-c2cc(F)ccc2CNC(=O)c2nc3n(c(=O)c2O)CCOCC32CCOCC2)n(C)n1 [Example 41, N-((2-(1,3-dimethyl-1H-1,2,4-triazol-5-yl)-4-fluorophenyl)methyl)-3′-hydroxy-4′-oxo-2,3,5,6,6′,7′-hexahydro-4′H-spiro[pyran-4,10′-pyrimido[1,2-d][1,4]oxazepine]-2′-carboxamide] |  | 0.01 to 0.05 | 0.003 to 0.05
Cc1n[nH]c(-c2cc(F)ccc2CNC(=O)c2nc3n(c(=O)c2O)CCOCC32CCOCC2)n1 [Example 42, N-((4-fluoro-2-(3-methyl-1H-1,2,4-triazol-5-yl)phenyl)methyl)-3′-hydroxy-4′-oxo-2,3,5,6,6′,7′-hexahydro-4′H-spiro[pyran-4,10′-pyrimido[1,2-d][1,4]oxazepine]-2′-carboxamide] |  | 0.001 to 0.01 | 0.001 to 0.003
